The test system of this assay is bacterial populations native to the test sample. The assay can be described thus: Minimum inhibitory concentration screen of biocides under anaerobic conditions (pH indicator dye). It is filed as cell-based. The note with it: pH 6.5, read-out: Minimum Inhibitory Concentration. The text has this:
A few exemplary biocides or a combination of one or more quaternary ammonium compounds with one additional biocide were investigated for their ability to inhibit microorganism growth. The method used to generate the data in Table 1 was based on methods for identifying the minimum inhibitory concentration of biocides or biocidal agents for use in anaerobically contaminated aqueous system as disclosed in the patent publication WO9934013A1 by Schwingel, et. al.
The method was a test assay used to rapidly screen antimicrobial agents against bacterial populations native to the test sample under anaerobic conditions. The assay utilized a pH indicator dye which is red at pH levels above 6.5 and yellow below pH 6.5. During fermentation under anaerobic conditions, volatile fatty acids were produced, which lowered the pH of the system. In the test wells, the accumulation of volatile fatty acids from actively growing and fermenting microorganisms lowered the pH causing the indicator dye to turn yellow. […]
When the control sample had turned yellow due to active fermentation and acid production, all samples were examined for color change, and the Minimum Inhibitory Concentration (MIC) values recorded. […] Because MIC values change with extended contact time, it was important to read the MIC values within 2-3 hours of the control wells turning yellow. […]

With `CN1CSC(=S)N(C)C1` [3,5-dimethyl-tetrahydro-2H-1,3,5-thiadiazine-2-thione], the MIC is 26.2 µg/mL. Then `N#CSCSC#N` [Methylenebisthiocyanate], with 0.8 to 1.6 µg/mL.
